Experimental data from publication PMC11628397 (Nature Synthesis, 2024).
In brackets after ≈: the same amount, converted by molar mass.

Assays:
[1] = kinetic solubility in phosphate-buffered saline, pH 7.4; format: physicochemical; conditions: pH 7.4, aqueous buffer, kinetic from dmso stock
[2] = tested on: human cancer cell line MCF-7; assay: resazurin reduction assay, growth inhibition of MCF-7; format: cell-based; conditions: MCF7, read-out: IC50, inhibition of the growth of MCF-7
[3] = tested on: human cancer cell line MCF-7; conditions: MCF-7 human cancer cell line; cited from earlier work
[4] = tested on: MCF-7 cells; conditions: cited from earlier work
[5] = metabolic stability in human liver microsomes

Q: What does the source list for `CC(C)(C)c1ccc(CN2CCN(C(c3ccccc3)c3ccc(Cl)cc3)CC2)cc1` (stereo not drawn) [Buclizine]?
A: solubility kinetic [1]: ≤ 1 µM; IC50 [2]: 31.3 ± 7.8 µM; effect on cell growth (in words) [3]: cytostatic effect; cell differentiation, intracellular lipid droplets (in words) [4]: induced cell differentiation

Q: Which results are given for `CCOC(=O)c1ccc(N)cc1` [Benzocaine]?
A: solubility kinetic [1]: 385 µM (≈ 63.6 µg/mL); CLint, metabolic stability (as printed in text) [5]: 83 mg/min/µL
